Structures can show the parent of a compound that is named as a salt.
Row | SMILES | melting point [°C]
1 | Cn1cncc1C(O)(c1ccc(Cl)cc1)c1ccc2c(c1)c(-c1cccc(Cl)c1)c(C(=O)O)c1nnnn12 (centres unmarked) (as salt: hydrochloride) [Comp 53] | > 260
2 | Cn1cncc1C(O)(c1ccc(Cl)cc1)c1ccc2c(c1)c(-c1cccc(Cl)c1)c(CO)c1nnnn12 (centres unmarked) (as salt: hydrochloride) [Comp 82] | > 280
3 | Cn1cncc1C(OCCO)(c1ccc(Cl)cc1)c1ccc2c(c1)c(-c1cccc(Cl)c1)cc1nnnn12 (centres unmarked) (hydrate or solvate) [Comp 41] | 150
4 | Fc1ccc(C(c2ccc3c(c2)c(-c2ccccc2)cc2nccn23)n2ccnc2)cc1 (racemic) (hydrate or solvate) [Comp 3, (±)-7-[(4fluorophenyl)(1H-imidazol-1-yl)methyl]-5-phenylimidazo[1,2-a]quinoline ethanedioate(2:3).hemihydrate] | 204.3
5 | O=c1[nH]nc2cc(-c3ccccc3)c3cc(C(c4ccc(Cl)cc4)n4ccnc4)ccc3n12 (racemic) (hydrate or solvate) [Comp 7, (±)-7-[(4-chlorophenyl)-1H-imidazol-1-ylmethyl]-5-phenyl[1,2,4]triazolo[4,3-a]quinolin-1(2H)-one ethanedioate(1:1).hemihydrate] | 198.3
6 | Cn1cncc1C(O)(c1ccc(Cl)cc1)c1ccc2c(c1)c(-c1cccc(Cl)c1)cc1cnnn12 (racemic) [Comp 26, (±)-5-(3-chlorophenyl)-α-(4-chlorophenyl)-α-(1-methyl-1H-imidazol-5-yl)-[1,2,3]triazolo[1,5-a]quinoline-7-methanol] | 222
7 | Cn1cncc1C(O)(c1ccc(Cl)cc1)c1ccc2c(c1)c(-c1cccc(Cl)c1)nc1nnnn12 (racemic) [Comp 29, (±)-5-(3-chlorophenyl)-α-(4-chlorophenyl)-α-(1-methyl-1H-imidazol-5-yl)tetrazolo[1,5-a]quinazoline-7-methanol] | 139
8 | Cn1cncc1C(O)(c1ccc(Cl)cc1)c1ccc2c(c1)C(c1cccc(Cl)c1)Nc1nnnn1-2 (racemic) [Comp 30, (±)5-(3-chlorophenyl)-α-(4-chlorophenyl)4,5-dihydro-α-(1-methyl-1H-imidazol-5-yl)tetrazolo[1,5-a]quinazoline-7-methanol] | 212
9 | Cn1cncc1C(N)(c1ccc(Cl)cc1)c1ccc2c(c1)c(-c1cccc(Cl)c1)nc1nnnn12 (racemic) [Comp 32, (±)-5-(3-chlorophenyl)-α-(4-chlorophenyl)-α-(1-methyl-1H-imidazol-5-yl)tetrazolo[1,5-a]quinazoline-7-methanamine] | 159
10 | CN1c2nnnn2-c2ccc(C(O)(c3ccc(Cl)cc3)c3cncn3C)cc2C1c1cccc(Cl)c1 (racemic) [Comp 33, (±)-5-(3-chlorophenyl)-α-(4-chlorophenyl)-4,5-dihydro-4methyl-α-(1-methyl-1H-imidazol-5-yl)tetrazolo[1,5-a]quinazoline-7-methanol] | 235
11 | Cn1cncc1C(N)(c1ccc(Cl)cc1)c1ccc2c(c1)c(-c1cccc(Cl)c1)cc1nnnn12 (centres unmarked) [Comp 27] | 172
12 | Cn1cncc1C(N)(c1ccc(Cl)cc1)c1ccc2c(c1)c(-c1cccc(Cl)c1)cc1nnnn12 (centres unmarked) [Comp 28] | 180
13 | CNC(c1ccc(Cl)cc1)(c1ccc2c(c1)c(-c1cccc(Cl)c1)cc1nnnn12)c1cncn1C (centres unmarked) [Comp 48] | 167
14 | CNc1ncc(C(c2ccc(Cl)cc2)c2ccc3c(c2)c(-c2cccc(Cl)c2)cc2nnnn23)n1C (centres unmarked) [Comp 49] | 206
15 | Cn1cncc1C(N)(c1ccc(Cl)cc1)c1ccc2c(c1)c(-c1cccc(Cl)c1)c(C(N)=O)c1nnnn12 (centres unmarked) [Comp 77] | > 250
16 | Cn1cncc1C(O)(c1ccc(Cl)cc1)c1ccc2c(c1)c(-c1cccc(Cl)c1)c(C(N)=O)c1nnnn12 (centres unmarked) [Comp 80] | > 250
17 | Cn1cncc1C(c1ccc(Cl)cc1)c1ccc2c(c1)c(-c1cccc(Cl)c1)cc1nnnn12 (centres unmarked) [Comp 94] | 166
18 | CCOC(=O)c1cn2c(cc(-c3cccc(Cl)c3)c3cc(C(O)(c4ccc(Cl)cc4)c4cncn4C)ccc32)n1 (centres unmarked) [Comp 95] | 143
19 | Cn1cncc1C(NO)(c1ccc(Cl)cc1)c1ccc2c(c1)c(-c1cccc(Cl)c1)cc1cnnn12 (centres unmarked) [Comp 98] | 191
20 | CNCC(=O)NC(c1ccc(Cl)cc1)(c1ccc2c(c1)c(-c1cccc(Cl)c1)cc1nnnn12)c1cncn1C (centres unmarked) [Comp 121] | 224
